IC50 data for nine molecules are collected here from patent US20060281768A1, “THIENOPYRIMIDINE AND THIENOPYRIDINE KINASE MODULATORS” (priority 2005, published 2006).

The term IC50 denotes the concentration that inhibits the measured activity by half.

One assay relates to MV4-11 cells. Nature of the assay: Growth inhibition of MV4-11 cells (CellTiterGlo). The class given is cell-based. Conditions: Homo sapiens, 72 hours, uncertainty +20%. The procedure:
FLT3 specific growth inhibition was measured in the leukemic cell line MV4-11 (ATCC Number: CRL-9591). […] MV4-11 cells cannot grow and survive without active FLT31TD.
To measure proliferation inhibition by test compounds the luciferase based CellTiterGlo reagent (Promega) was used. Cells are plated at 10,000 cells per well in 100ul of in RPMI media containing penn/strep, 10% FBS and lng/ml GM-CSF or 1 ng/ml IL-3 for MV4-11 and Baf3 cells respectively.
Compound dilutions or 0.1% DMSO (vehicle control) are added to cells and the cells are allowed to grow for 72 hours at standard cell growth conditions (37° C., 5% CO2). Total cell growth is quantified as the difference in luminescent counts (relative light units, RLU) of cell number at Day 0 compared to total cell number at Day 3 (72 hours of growth and/or compound treatment). One hundred percent inhibition of growth is defined as an RLU equivalent to the Day 0 reading. Zero percent inhibition is defined as the RLU signal for the DMSO vehicle control at Day 3 of growth. All data points are an average of triplicate samples. […] Inhibition and IC50 data analysis was done with GraphPad Prism using a non-linear regression fit with a multiparamater, sigmoidal dose-response (variable slope) equation.
MV-411 cells expressed the FLT3 internal tandem duplication mutation, and thus were entirely dependent upon FLT3 activity for growth. […] In contrast, the Baf3 cell proliferations is driven by the cytokine IL-3 and these cells are used as a non-specific toxicity control for test compounds.

The target of another assay is T1, wild-type FLT3 receptor (Homo sapiens, UniProt P36888).
T1 construct: host or cells: Baf3 (murine B cell lymphoma line)
T1 sequence (P36888 27-993): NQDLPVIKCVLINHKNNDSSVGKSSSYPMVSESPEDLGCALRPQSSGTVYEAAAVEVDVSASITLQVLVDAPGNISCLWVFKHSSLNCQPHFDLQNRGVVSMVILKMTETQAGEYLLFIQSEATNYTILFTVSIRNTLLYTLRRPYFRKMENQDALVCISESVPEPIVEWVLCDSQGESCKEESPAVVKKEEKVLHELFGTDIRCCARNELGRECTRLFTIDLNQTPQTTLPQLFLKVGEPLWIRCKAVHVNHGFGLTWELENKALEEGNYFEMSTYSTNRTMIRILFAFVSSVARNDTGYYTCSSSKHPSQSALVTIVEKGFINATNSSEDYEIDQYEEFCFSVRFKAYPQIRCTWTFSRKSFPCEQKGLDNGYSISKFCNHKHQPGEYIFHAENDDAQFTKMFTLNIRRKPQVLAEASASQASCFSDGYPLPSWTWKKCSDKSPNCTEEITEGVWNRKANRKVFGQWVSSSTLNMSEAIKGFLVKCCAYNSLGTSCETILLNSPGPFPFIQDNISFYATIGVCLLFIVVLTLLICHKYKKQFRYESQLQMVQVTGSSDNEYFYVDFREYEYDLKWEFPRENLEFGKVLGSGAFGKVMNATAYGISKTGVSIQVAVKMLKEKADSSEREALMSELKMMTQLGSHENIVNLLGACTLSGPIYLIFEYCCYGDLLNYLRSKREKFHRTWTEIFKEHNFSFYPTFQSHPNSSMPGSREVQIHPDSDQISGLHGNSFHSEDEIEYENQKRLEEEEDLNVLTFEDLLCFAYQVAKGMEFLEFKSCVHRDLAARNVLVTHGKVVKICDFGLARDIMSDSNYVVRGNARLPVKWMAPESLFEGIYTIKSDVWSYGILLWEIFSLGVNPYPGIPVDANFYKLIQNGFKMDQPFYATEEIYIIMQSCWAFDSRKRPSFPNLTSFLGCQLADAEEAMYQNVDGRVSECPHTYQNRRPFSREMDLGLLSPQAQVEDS
Nature of the assay: Cell-Based FLT3 Receptor Elisa (Baf3 FLT3 cells, FLT3 phosphorylation). Conditions: Flt ligand stimulated FLT3 phosphorylation, 1 hour compound incubation, uncertainty +20%. How it is done: Cells overexpressing the FLT3 receptor were obtained from Dr. Michael Heinrich (Oregon Health and Sciences University). The Baf3 FLT3 cell lines were created by stable transfection of parental Baf3 cells (a murine B cell lymphoma line dependent on the cytokine IL-3 for growth) with wild-type FLT3. Cells were selected for their ability to grow in the absence of IL-3 and in the presence of FLT3 ligand.
Baf3 cells were maintained in RPMI 1640 with 10%FCS, penn/strep and 10 ng/mL FLT ligand at 37° C., 5% CO2. To measure direct inhibition of the wild-type FLT3 receptor activity and phosphorylation a sandwich ELISA method was developed similar to those developed for other RTKs (3,4). 200ul of Baf3FLT3 cells (1×10^6/ml) were plated in 96 well dishes in RPM11640 with 0.5% serum and 0.01ng/ml IL-3 for 16 hours prior to 1 hour compound or DMSO vehicle incubation. Cells were treated with 100 ng/ml Flt ligand (R&D Systems Cat# 308-FK) for 10 min. at 37° C. Cells were pelleted, washed and lysed in 100ul HNTG buffer (50 mM Hepes, 150 mM NaCl, 10% Glycerol, 1% Triton -X-100, 10 mM NaF, 1 mM EDTA, 1.5 mM MgCl2, 10 mM NaPyrophosphate) supplemented with phosphatase (Sigma Cat# P2850) and protease inhibitors (Sigma Cat #P8340). Lysates were cleared by centrifugation at 1000×g for 5 minutes at 4° C. Cell lysates were transferred to white wall 96 well microtiter (Costar #9018) plates coated with 50ng/well anti-FLT3 antibody (Santa Cruz Cat# sc-480) and blocked with SeaBlock reagent (Pierce Cat#37527). Lysates were incubated at 4° C. for 2 hours. Plates were washed 3× with 200ul/well PBS/0.1% triton-X-100. Plates are then incubated with 1:8000 dilution of HRP-conjugated anti-phosphotyrosine antibody (Clone 4G10, Upstate Biotechnology Cat#16-105) for 1 hour at room temperature. Plates were washed 3× with 200ul/well PBS/0.1% triton-X-100. Signal detection with Super Signal Pico reagent (Pierce Cat#37070) was done according to manufacturer's instruction with a Berthold microplate luminometer. All data points are an average of triplicate samples. […] Inhibition and IC50 data analysis was done with GraphPad Prism using a non-linear regression fit with a multiparamater, sigmoidal dose-response (variable slope) equation.

For the next assay, the target named is T2, FLT3 571-993 (Homo sapiens, UniProt P36888).
T2 construct: 10 nM FLT3 571-993, 20 ug/mL poly Glu4Tyr
T2 sequence (P36888 571-993): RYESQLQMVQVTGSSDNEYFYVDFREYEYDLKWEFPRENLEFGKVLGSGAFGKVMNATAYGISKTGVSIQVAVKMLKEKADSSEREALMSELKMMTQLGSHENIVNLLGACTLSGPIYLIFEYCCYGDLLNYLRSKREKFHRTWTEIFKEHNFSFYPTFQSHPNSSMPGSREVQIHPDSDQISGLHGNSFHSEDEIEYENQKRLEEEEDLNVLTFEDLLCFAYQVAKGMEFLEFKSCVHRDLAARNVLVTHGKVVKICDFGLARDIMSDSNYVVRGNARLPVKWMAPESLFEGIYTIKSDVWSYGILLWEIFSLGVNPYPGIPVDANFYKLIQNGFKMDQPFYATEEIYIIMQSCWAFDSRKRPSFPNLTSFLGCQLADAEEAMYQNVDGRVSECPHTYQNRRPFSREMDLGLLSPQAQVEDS
Nature of the assay: FLT3 Fluorescence Polarization Kinase Assay. As to conditions: 10 nM FLT3 571-993, 150 uM ATP, 30 minutes; uncertainty +10%. The assay is classed as biochemical. The procedure: The FLT3 FP assay utilizes the fluorescein-labeled phosphopeptide and the anti-phosphotyrosine antibody included in the Panvera Phospho-Tyrosine Kinase Kit (Green) supplied by Invitrogen. When FLT3 phosphorylates poly Glu4Tyr, the fluorescein-labeled phosphopeptide is displaced from the anti-phosphotyrosine antibody by the phosphorylated poly Glu4Tyr, thus decreasing the FP value. The FLT3 kinase reaction is incubated at room temperature for 30 minutes under the following conditions: 10 nM FLT3 571-993, 20 ug/mL poly Glu4Tyr, 150 uM ATP, 5mM MgCl2, 1% compound in DMSO. The kinase reaction is stopped with the addition of EDTA. The fluorescein-labeled phosphopeptide and the anti-phosphotyrosine antibody are added and incubated for 30 minutes at room temperature.
All data points are an average of triplicate samples. Inhibition and IC50 data analysis was done with GraphPad Prism using a non-linear regression fit with a multiparamater, sigmoidal dose-response (variable slope) equation.

In the case of `O=C(Nc1ccc(Oc2ccccc2)cc1)NC1CCN(c2ncnc3ccsc23)C1` (stereo not drawn) [Compound 13, 1-(4-Phenoxy-phenyl)-3-(1-thieno [3,2-d]pyrimidin-4-yl-pyrrolidin-3-yl)-urea], the IC50 with MV4-11 cells was 881 nM; at wild-type FLT3 receptor, more than 5000 nM.

In the case of `CC(C)c1ccc(NC(=O)OC2CCN(c3ncnc4ccsc34)C2)cc1` (stereo not drawn) [Compound 5, (4-Isopropyl-phenyl)-carbamic acid 1-thieno [3,2-d]pyrimidin-4-yl-pyrrolidin-3-yl ester], the figures for the concentration for half-maximal inhibition (IC50) against FLT3 571-993, in the assay with MV4-11 cells and against wild-type FLT3 receptor were 64 nM, 1300 nM and 22 nM, respectively.

Regarding `CCN(CC)c1ccc(NC(=O)NC2CCN(c3ncnc4ccsc34)C2)cc1` (stereo not drawn) [Compound 18, 1-(4-Diethylamino-phenyl)-3-(1-thieno [3,2-d]pyrimidin-4-yl-pyrrolidin-3-yl)-urea], the IC50 with MV4-11 cells came to 757 nM; against wild-type FLT3 receptor, 895 nM.

Regarding `CC(C)c1ccc(NC(=O)NC2CCN(c3ncnc4ccsc34)C2)cc1` (stereo not drawn) [Compound 11, 1-(4-Isopropyl-phenyl)-3-(1-thieno [3,2-d]pyrimidin-4-yl-pyrrolidin-3-yl)-urea], the IC50 against FLT3 571-993 was determined as 77 nM; in the assay on MV4-11 cells, 671 nM; on wild-type FLT3 receptor, 108 nM.

`O=C(Nc1ccc(OC2CCC2)nc1)OC1CCN(c2ncnc3ccsc23)C1` (stereo not drawn) [Compound 25, (6-Cyclobutoxy-pyridin-3-yl)-carbamic acid 1-thieno[3,2-d]pyrimidin-4-yl-pyrrolidin-3-yl ester]: the IC50 stood at 345 nM in the assay on MV4-11 cells and 1600 nM at wild-type FLT3 receptor.

Turning to `O=C(Nc1ccc(OC2CCC2)nc1)NC1CCN(c2ncnc3ccsc23)C1` (stereo not drawn) [Compound 15, 1-(6-Cyclobutoxy-pyridin-3-yl)-3-(1-thieno [3,2-d]pyrimidin-4-yl-pyrrolidin-3-yl)-urea], the results for the 50% inhibitory concentration (IC50) with MV4-11 cells and against wild-type FLT3 receptor were 983 nM and 1900 nM, respectively.

With `O=C(Nc1ccc(Oc2ccccc2)cc1)OC1CCN(c2ncnc3ccsc23)C1` (stereo not drawn) [Compound 26, (4-Phenoxy-phenyl)-carbamic acid 1-thieno[3,2-d]pyrimidin-4-yl-pyrrolidin-3-yl ester], the IC50 in the assay on MV4-11 cells came out at 953 nM; against wild-type FLT3 receptor it was 390 nM.

On to `CC(C)c1ccc(NC(=O)NC2CCN(c3ncnc4sccc34)C2)cc1` (stereo not drawn) [Compound 9, 1-(4-Isopropyl-phenyl)-3-(1-thieno [2,3-d]pyrimidin-4-yl-pyrrolidin-3-yl)-urea], for which the figures for the half-inhibitory concentration (IC50) on FLT3 571-993, with MV4-11 cells and at wild-type FLT3 receptor were 41 nM, 1300 nM and 55 nM, respectively.

Regarding `O=C(Nc1ccc(N2CCCC2)cc1)NC1CCN(c2ncnc3ccsc23)C1` (stereo not drawn) [Compound 19, 1-(4-Pyrrolidin-1-yl-phenyl)-3-(1-thieno [3,2-d]pyrimidin-4-yl-pyrrolidin-3-yl)-urea], the IC50 was 850 nM in the assay on MV4-11 cells and 2900 nM against wild-type FLT3 receptor.
